Results on one compound are retold here after patent US10765682B2 (LAM Therapeutics, Inc., priority 2014, dated 2020).

The test system of this assay is Yulac614 melanoma cells. The experiment in a line: Yulac614 cell viability (CellTiter-Glo), drug library screen and 10 point validation with/without vemurafenib. A general note: In ATP-based viability assays light output follows the ATP content of the culture.

Description: Duplicate drug-spotted plates were prepared and to them were added Yulac614 cells which were pre-treated with either DMSO (0.01% final) or vemurafenib (6 μM final). The Yulac614 cells were grown in OptiMEM (Life Technologies) containing 5% FBS (Sigma Aldrich F2442-500ML, Lot 12D370) Penicillin/Streptomycin (100×) (CellGro Ref 30-002). 30 uL of cells were dispensed per well using a Multidrop Combi (Thermo Fisher Scientific) to give a final cell density of 2,000 cells per well.
Plates were incubated for 72 h at 37° C. under an atmosphere of 5% CO2 in a humidified incubator. Cell viability was determined with CellTiter-Glo® luminescence assay (Promega) as per the manufacturer's instructions. Viability was expressed as a percentage of control (DMSO) cells. The viability of the library drug alone was compared to the library drug+vemurafenib and significant combinations were identified.
72 hours after compound addition relative cell viability was determined by CellTiter-Glo® luminescence assay (Promega) as per the manufacturer's instructions, and values were expressed as a percentage relative to vehicle (DMSO) treated control cells (set to 100%).

The IC20 is the concentration at which the effect reaches the 20% level. High values mean weaker potency, low ones greater potency. For `Cc1cccc(/C=N/Nc2cc(N3CCOCC3)nc(OCCc3ccccn3)n2)c1` [apilimod, (E)-4-(6-(2-(3-methylbenzylidene)hydrazinyl)-2-(2-(pyridin-2-yl)ethoxy)pyrimidin-4-yl)morpholine], the IC20 was found to be 0.5 µM.
